{"source": "ChEMBL document CHEMBL4665911", "about": "“Novel Arginase Inhibitors for Treating Cancer and Respiratory Inflammatory Diseases” (ACS Med Chem Lett, 2020)", "molecular_target": "T1, Arginase-1 (Homo sapiens, UniProt P05089)", "T1 sequence (P05089 whole entry)": "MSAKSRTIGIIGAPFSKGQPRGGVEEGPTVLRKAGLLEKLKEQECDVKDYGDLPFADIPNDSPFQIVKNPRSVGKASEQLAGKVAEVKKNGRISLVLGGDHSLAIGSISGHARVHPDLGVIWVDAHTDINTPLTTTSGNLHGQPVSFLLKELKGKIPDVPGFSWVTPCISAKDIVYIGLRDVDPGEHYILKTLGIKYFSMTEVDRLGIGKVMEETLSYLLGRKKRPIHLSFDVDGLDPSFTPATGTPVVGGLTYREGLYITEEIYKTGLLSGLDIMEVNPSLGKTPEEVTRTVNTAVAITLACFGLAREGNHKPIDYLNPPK", "assay": "Inhibition of human recombinant arginase 1 expressed in Escherichia coli using thioarginine by Ellman's assay"}
{"smiles": "N[C@H]1CCN[C@@](CCCCB(O)O)(C(=O)O)C1", "values": [{"measurement": "IC50", "result": 30, "unit": "nM"}]}
